Laboratory results published in patent EP3290412A1, “HIV-1 NUCLEOCAPSID INHIBITORS” (Università degli Studi di Siena, priority 2016, dated 2018).

Legend:
NC(11-55) = NC(11-55) (Human immunodeficiency virus type 1, UniProt P12493); assay: NC inhibition assay (NC-induced cTAR DNA destabilization, fluorescence); assay type: biochemical, HIV-1; settings: for inhibition at 100 µM: single point screening, positive = >25% inhibition at 100µM
How it was run: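 Doubly labelled cTAR (0.1 µM, Alexa488/Dabcyl) pre-complexed with 1 µM Zn-loaded NC(11-55) for 15 min, then compound added for a further 15 min; run at 20 °C in Tris-HCl pH 7.5, 30 mM NaCl, 0.2 mM MgCl2. Fluorescence read at ex 480/em 520 nm. IC50 taken from dose-response fit of % inhibition of NC-induced fluorescence increase.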

[1] = molecular target: T1, full length (1-55) HIV-1 NCp7 (Human immunodeficiency virus type 1 group M subtype B, UniProt P12493); assay: Electromobility Shift Assay (EMSA), competition for ssDNA binding; settings: NCp7 300 nM, M13mp18 ssDNA; positive = >25% inhibition at 100µM
T1 construct: recombinant full length (1-55) HIV-1 NCp7 proteins; made in house
How it was run: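 Recombinant NL4-3 NCp7 (300 nM in the pre-mix) was combined with compound in 20 mM Tris-HCl pH 7.4, 2 mM MgCl2, 100 mM NaCl, 1 mM DTT, then M13mp18 ssDNA was added for 25 min at 37 °C. Complexes were run on 1% agarose/0.5x TBE and stained with SybrGold. IC50 is the concentration at which bound ssDNA migrated 50% of the bound–unbound distance (triplicate).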

HeLa cells = assay: HeLa Proliferation assay (CellTiter Glo); assay type: cell-based; settings: 72 hours
How it was run: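 HeLa cells in phenol red-free DMEM + 10% FBS plated at 2000 cells/well, recovered 4 h, then exposed to compounds for 72 h at 37 °C, 5% CO2. Viability read by CellTiter Glo luminescence.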

SMILES: CC(NC(=O)c1nc(-c2cc(Cl)ccn2)nc(O)c1O)C1CCC(F)(F)CC1 (centres unmarked) [Compound 87, 2-(4-chloropyridin-2-yl)-N-(1-(4,4-difluorocyclohexyl)ethyl)-5,6-dihydroxypyrimidine-4-carboxamide]
- IC50 (NC(11-55)): 41 µM
- inhibition at 100 µM (NC(11-55)): > 25%
- EMSA screening results [1]: Negative
- Proliferation assay HELA TD50 (HeLa cells): 6.158 µM

SMILES: C[C@@H](NC(=O)c1nc(-c2cc(CCN)ccn2)nc(O)c1O)C1CCCCC1 [Compound 88, (R)-2-(4-(2-aminoethyl)pyridin-2-yl)-N-(1-cyclohexylethyl)-5,6-dihydroxypyrimidine-4-carboxamide]
- IC50 (NC(11-55)): 7.5 µM
- inhibition at 100 µM (NC(11-55)): > 25%
- EMSA screening results [1]: Positive (A compound showing >25% inhibition when tested at 100µM concentration is considered as "positive")
- Proliferation assay HELA TD50 (HeLa cells): 7.1338 µM

SMILES: CCNS(=O)(=O)c1ccc(-c2nc(O)c(O)c(C(=O)N[C@H](C)C3CCCCC3)n2)nc1 [Compound 89, (R)-N-(1-cyclohexylethyl)-2-(5-(N-ethylsulfamoyl)pyridin-2-yl)-5,6-dihydroxypyrimidine-4-carboxamide]
- IC50 (NC(11-55)): 28 µM
- inhibition at 100 µM (NC(11-55)): > 25%
- EMSA screening results [1]: Negative
- Proliferation assay HELA TD50 (HeLa cells): 12.629 µM

SMILES: C[C@@H](NC(=O)c1nc(-c2cc(CCNCc3cccn3C)ccn2)nc(O)c1O)C1CCCCC1 [Compound 91, (R)-N-(1-cyclohexylethyl)-5,6-dihydroxy-2-(4-(2-(((1-methyl-1H-pyrrol-2-yl)methyl)amino)ethyl)pyridin-2-yl)pyrimidine-4-carboxamide]
- IC50 (NC(11-55)): 12 µM
- inhibition at 100 µM (NC(11-55)): > 25%
- EMSA screening results [1]: Positive (A compound showing >25% inhibition when tested at 100µM concentration is considered as "positive")
- Proliferation assay HELA TD50 (HeLa cells): 1.1604 µM

SMILES: C[C@@H](NC(=O)c1nc(-c2cc(CCN(C)C)ccn2)nc(O)c1O)C1CCCCC1 [Compound 92, (R)-N-(1-cyclohexylethyl)-2-(4-(2-(dimethylamino)ethyl)pyridin-2-yl)-5,6-dihydroxypyrimidine-4-carboxamide]
- IC50 (NC(11-55)): 10 µM
- inhibition at 100 µM (NC(11-55)): > 25%
- EMSA screening results [1]: Negative
- Proliferation assay HELA TD50 (HeLa cells): 1.1684 µM
